# Results reported in patent publication US10080751B2, “Systems and methods for treating bacterial infection” (priority 2016, dated 2018).
# Structures can show the parent of a compound that is named as a salt. Where two headings read alike, the source gives them in different places.
# Key:
# [1] = both, rat, in vivo, iv, 4 weeks
# Protocol: A repeated-dose, 4-week toxicity study was conducted in male and female rats, where single, daily IV bolus doses up to 60 mg/kg were given. […] A 28-day toxicity study was also conducted in male and female marmosets, where iclaprim mesylate was infused intravenously over a 20-minute interval.
# [2] = system: E. faecalis; assay: MIC with/without bovine pulmonary surfactant, E. faecalis; type: cell-based, Enterococcus faecalis; conditions: for MICRZ, Resazurin: +BPS: 2.5% v/v BPS; for MICRZ, Resazurin / MIC: no BPS; for MIC: Enterococcus faecalis, read-out: MIC, CLSI
# Protocol: (§1) Clinical isolates were identified by the submitting laboratories and confirmed by JMI Laboratories using standard bacteriologic algorithms and methodologies, including Matrix-Assisted Laser Desorption Ionization-Time Of Flight Mass Spectrometry (MALDI-TOF MS). When necessary, MALDI-TOF MS was performed using the Bruker Daltonics MALDI Biotyper (Billerica, Mass., USA), following manufacturer's instructions. Isolates selected were bacterial species commonly associated with pneumonia. […] 2.2 Susceptibility testing
# (§2) Antibacterial susceptibility testing was measured by JMI Labs (North Liberty, Iowa, USA). […] These clinical isolates were collected from US (n=4), Mexico (n=2), and Italy (n=1). Susceptibility testing was performed by broth microdilution in accordance with the Clinical and Laboratory and Standards Institute (CLSI) guidelines M07-A10 (2015) and the standard operating procedures at JMI laboratories. Minimum inhibitory concentrations (MICs) were based on CLSI criteria (2015). There are no published breakpoints for iclaprim. E. coli, K. pneumoniae, M. catarrhalis, E. faecalis, and S. aureus were tested in cation-adjusted Mueller-Hinton broth (CA-MHB). S. pneumoniae were tested in CA-MHB supplemented with 2.5-5% lysed horse blood, and H. influenza were tested in Haemophilus test medium. Quality control and interpretation of results were performed in accordance with CLSI M100-S26 (2016) methods. QC ranges for iclaprim were those approved by CLSI and published in M100-S26 (2016). Iclaprim and comparator antibiotic MIC results were within the CLSI published ranges against E. coli ATCC 25922, E. faecalis ATCC 29212, E. faecalis ATCC 33186, H. influenzae ATCC 49247, K. pneumoniae ATCC 700603 (ESBL phenotype), S. aureus ATCC 29213, and S. pneumoniae ATCC 49619. Isolates were tested with MIC panels (ThermoFisher Scientific, Cleveland, Ohio, USA) of comparator antibiotics (daptomycin and levofloxacin).
# (§3) Because bovine pulmonary surfactant can introduce cloudiness to the MIC testing media, antimicrobial growth inhibition was also evaluated using the colorimetric metabolic indicator resazurin (Camlab Ltd., Cambridge, UK). […] S. pneumoniae panels were omitted from resazurin analysis because the color change was obscured by the lysed horse blood present in the test medium. Growth inhibition was then evaluated as a visible color change from blue (no growth) to pink (robust growth) and recorded as a MICRZ value.
# (§4) The MICs of iclaprim, levofloxacin, and daptomycin were determined against Gram-positive and Gram-negative isolates.
# (§5) A new vial of bovine pulmonary surfactant (BPS; Survanta®; Abbott Laboratories, Columbus, Ohio) was utilized for each independent experiment. Each vial was mixed thoroughly and a 100 μL aliquot was spread on an agar plate, which was incubated overnight to confirm sterility. […] The concentration of surfactant was expressed in terms of percent volume of Survanta® suspension, which consisted of phospholipid (25 mg/mL) and surfactant proteins (<1 mg/mL) in 0.9% sodium chloride solution (Goerke, 1998). MICs of daptomycin were determined in CAMHB with the Ca^2+ content adjusted to 50 mg/L.
# [3] = system: M. catarrhalis; assay: MIC with/without bovine pulmonary surfactant, M. catarrhalis; type: cell-based, Moraxella catarrhalis; conditions: for MICRZ, Resazurin: +BPS: 2.5% v/v BPS
# Protocol: as §1, §2, §3, §4, §5
# [4] = system: S. aureus; assay: MIC with/without bovine pulmonary surfactant, S. aureus; type: cell-based, Staphylococcus aureus; conditions: for MICRZ, Resazurin: +BPS: 2.5% v/v BPS; for MICRZ, Resazurin: no BPS
# Protocol: as §1, §2, §3, §4, §5
# [5] = system: S. pneumoniae; assay: MIC with/without bovine pulmonary surfactant, S. pneumoniae; type: cell-based; conditions: Streptococcus pneumoniae
# Protocol: as §1, §2, §3, §4, §5
# [6] = system: common Gram-positive and Gram-negative respiratory bacteria; assay: Pulmonary surfactant interaction, overall effect on MIC and MICRZ; type: cell-based; conditions: respiratory Gram-positive strains and clinical isolates; read-out: MIC and MICRZ in the presence of 2.5% BPS
# Protocol: Antibacterial susceptibility testing was measured by JMI Labs (North Liberty, Iowa, USA). […] These clinical isolates were collected from US (n=4), Mexico (n=2), and Italy (n=1). Susceptibility testing was performed by broth microdilution in accordance with the Clinical and Laboratory and Standards Institute (CLSI) guidelines M07-A10 (2015) and the standard operating procedures at JMI laboratories. Minimum inhibitory concentrations (MICs) were based on CLSI criteria (2015). There are no published breakpoints for iclaprim. E. coli, K. pneumoniae, M. catarrhalis, E. faecalis, and S. aureus were tested in cation-adjusted Mueller-Hinton broth (CA-MHB). […]
# Because bovine pulmonary surfactant can introduce cloudiness to the MIC testing media, antimicrobial growth inhibition was also evaluated using the colorimetric metabolic indicator resazurin (Camlab Ltd., Cambridge, UK). […] Growth inhibition was then evaluated as a visible color change from blue (no growth) to pink (robust growth) and recorded as a MICRZ value.
# as §4
# A new vial of bovine pulmonary surfactant (BPS; Survanta®; Abbott Laboratories, Columbus, Ohio) was utilized for each independent experiment. […] MICs of daptomycin were determined in CAMHB with the Ca^2+ content adjusted to 50 mg/L. […]
# [7] = S. aureus Clinical Isolate 825189
structure (smiles),measurement,setting,value
"COc1cc(Cc2cnc(N)nc2N)c2c(c1OC)OC(C1CC1)C=C2 (racemic) [iclaprim mesylate, 5-[(2RS)-2-cyclopropyl-7,8-dimethoxy-2Hchromen-5-ylmethyl] pyrimidine-2,4-diamine methanesulfonate]",dosages with histopathological changes at the injection sites,[1],≥ 10 mg/kg/day
CCCCCCCCCC(=O)N[C@@H](Cc1c[nH]c2ccccc12)C(=O)N[C@H](CC(N)=O)C(=O)N[C@@H](CC(=O)O)C(=O)N[C@@H]1C(=O)NCC(=O)N[C@@H](CCCN)C(=O)N[C@@H](CC(=O)O)C(=O)N[C@H](C)C(=O)N[C@@H](CC(=O)O)C(=O)NCC(=O)N[C@H](CO)C(=O)N[C@@H]([C@H](C)CC(=O)O)C(=O)N[C@@H](CC(=O)c2ccccc2N)C(=O)O[C@@H]1C [Daptomycin],"MICRZ, Resazurin: +BPS",[2]; E. faecalis ATCC 29212,>16 µg/mL
same,"MICRZ, Resazurin",[2]; E. faecalis ATCC 29212,2 µg/mL
same,"MICRZ, Resazurin: +BPS",[2]; E. faecalis ATCC 33186,>16 µg/mL
same,"MICRZ, Resazurin",[2]; E. faecalis ATCC 33186,1 µg/mL
same,MIC,"[2]; ATCC29212, E. faecalis ATCC 29212",2 µg/mL
same,MIC,"[2]; ATCC33186, E. faecalis ATCC 33186",1 µg/mL
same,"MICRZ, Resazurin: +BPS",[3]; M. catarrhalis Clinical Isolate 893806,>16 µg/mL
same,"MICRZ, Resazurin","[3]; M. catarrhalis Clinical Isolate 893806, no BPS",8 µg/mL
same,"MICRZ, Resazurin: +BPS",[3]; M. catarrhalis Clinical Isolate 893807,>16 µg/mL
same,"MICRZ, Resazurin","[3]; M. catarrhalis Clinical Isolate 893807, no BPS",8 µg/mL
same,MIC,"[3]; Moraxella catarrhalis, M. catarrhalis Clinical Isolate 893806, no BPS",8 µg/mL
same,"MICRZ, Resazurin: +BPS",[4]; S. aureus ATCC 29213,>16 µg/mL
same,"MICRZ, Resazurin",[4]; S. aureus ATCC 29213,0.5 µg/mL
same,"MICRZ, Resazurin: +BPS",[4]; [7],>16 µg/mL
same,"MICRZ, Resazurin",[4]; [7],0.25 µg/mL
same,MIC,"[5]; ATCC49619, S. pneumoniae ATCC 49619, 2.5% v/v BPS, read-out: MIC, CLSI: +BPS",16 µg/mL
same,MIC,"[5]; ATCC49619, S. pneumoniae ATCC 49619, no BPS, read-out: MIC, CLSI",0.25 µg/mL
same,MIC,"[5]; S. pneumoniae Clinical Isolate 818757, 2.5% v/v BPS, read-out: MIC, CLSI: +BPS",16 µg/mL
same,MIC,"[5]; S. pneumoniae Clinical Isolate 818757, no BPS, read-out: MIC, CLSI",0.25 µg/mL
same,MIC,"[5]; S. pneumoniae Clinical Isolate 825175, 2.5% v/v BPS, read-out: MIC, CLSI: +BPS",16 µg/mL
same,MIC,"[5]; S. pneumoniae Clinical Isolate 825175, no BPS, read-out: MIC, CLSI",0.25 µg/mL
same,MIC,[6],> 16 µg/mL
